Results on two molecules are retold here after article PMC4923908, “In vitro and in vivo study of epigallocatechin-3-gallate-induced apoptosis in aerobic glycolytic hepatocellular carcinoma cells involving inhibition of phosphofructokinase activity” (Scientific Reports, 2016).

Data set [1] concerns the target T1, Phosphofructokinase (PFK), purified from rabbit skeletal muscle (Oryctolagus cuniculus, UniProt P00511).
T1 construct: gene PFKM
T1 sequence (P00511 2-780): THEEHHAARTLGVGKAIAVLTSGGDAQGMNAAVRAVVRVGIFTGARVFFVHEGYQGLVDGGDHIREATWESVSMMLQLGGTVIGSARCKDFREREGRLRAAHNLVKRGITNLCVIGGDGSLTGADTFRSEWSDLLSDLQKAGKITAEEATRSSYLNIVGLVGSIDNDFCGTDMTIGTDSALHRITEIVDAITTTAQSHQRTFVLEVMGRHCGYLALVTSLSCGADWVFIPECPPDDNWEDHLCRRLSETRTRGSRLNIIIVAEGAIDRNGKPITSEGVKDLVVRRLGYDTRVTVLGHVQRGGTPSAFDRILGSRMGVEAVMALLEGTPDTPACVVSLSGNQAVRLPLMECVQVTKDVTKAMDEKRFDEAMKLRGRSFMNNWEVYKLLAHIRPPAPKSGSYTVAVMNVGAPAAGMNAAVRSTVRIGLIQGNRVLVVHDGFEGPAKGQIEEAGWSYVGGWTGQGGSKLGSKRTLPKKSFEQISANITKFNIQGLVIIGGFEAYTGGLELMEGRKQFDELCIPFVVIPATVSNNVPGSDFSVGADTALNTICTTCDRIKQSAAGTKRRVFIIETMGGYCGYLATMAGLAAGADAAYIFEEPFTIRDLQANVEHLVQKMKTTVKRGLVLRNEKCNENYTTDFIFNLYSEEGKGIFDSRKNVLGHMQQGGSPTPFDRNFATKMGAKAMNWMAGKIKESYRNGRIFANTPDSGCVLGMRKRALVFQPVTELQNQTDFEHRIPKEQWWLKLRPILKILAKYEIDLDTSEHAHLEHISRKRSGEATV
Briefly: radiometric assay of purified PFK ([γ-32P]ATP); supported by intrinsic fluorescence center-of-mass shift (tetramer to dimer). In kind it is biochemical.

Data set [2] deals with the molecule itself. The experiment in a line: intrinsic fluorescence spectra (center of mass); purified PFK incubated 1 h with 0, 25, 50, 100 and 200 uM EGCG; conditions as for the radioassay (50 mM Tris-HCl pH 7.4, 5 mM MgCl2, 5 mM (NH4)2SO4, 1 mM F6P, 1 mM ATP, 1 mg/ml purified PFK); excitation 280 nm, emission 300-400 nm; tetramer to dimers.

By IC50 is commonly meant the concentration that gives 50% inhibition. With `O=C(O[C@@H]1Cc2c(O)cc(O)cc2O[C@@H]1c1cc(O)c(O)c(O)c1)c1cc(O)c(O)c(O)c1` [EGCG, epigallocatechin-3-gallate], the half-inhibitory concentration (IC50) in data set [1] came out at 124 µM.

B1: Phosphofructokinase (PFK) purified from rabbit skeletal muscle (enzyme, UniProt P00511 1-780, looked up)
chain: MTHEEHHAARTLGVGKAIAVLTSGGDAQGMNAAVRAVVRVGIFTGARVFFVHEGYQGLVDGGDHIREATWESVSMMLQLGGTVIGSARCKDFREREGRLRAAHNLVKRGITNLCVIGGDGSLTGADTFRSEWSDLLSDLQKAGKITAEEATRSSYLNIVGLVGSIDNDFCGTDMTIGTDSALHRITEIVDAITTTAQSHQRTFVLEVMGRHCGYLALVTSLSCGADWVFIPECPPDDNWEDHLCRRLSETRTRGSRLNIIIVAEGAIDRNGKPITSEGVKDLVVRRLGYDTRVTVLGHVQRGGTPSAFDRILGSRMGVEAVMALLEGTPDTPACVVSLSGNQAVRLPLMECVQVTKDVTKAMDEKRFDEAMKLRGRSFMNNWEVYKLLAHIRPPAPKSGSYTVAVMNVGAPAAGMNAAVRSTVRIGLIQGNRVLVVHDGFEGPAKGQIEEAGWSYVGGWTGQGGSKLGSKRTLPKKSFEQISANITKFNIQGLVIIGGFEAYTGGLELMEGRKQFDELCIPFVVIPATVSNNVPGSDFSVGADTALNTICTTCDRIKQSAAGTKRRVFIIETMGGYCGYLATMAGLAAGADAAYIFEEPFTIRDLQANVEHLVQKMKTTVKRGLVLRNEKCNENYTTDFIFNLYSEEGKGIFDSRKNVLGHMQQGGSPTPFDRNFATKMGAKAMNWMAGKIKESYRNGRIFANTPDSGCVLGMRKRALVFQPVTELQNQTDFEHRIPKEQWWLKLRPILKILAKYEIDLDTSEHAHLEHISRKRSGEATV
notes: Phosphofructokinase from rabbit skeletal muscle (muscle-type ATP-dependent 6-phosphofructokinase); no identifier or residues printed; The number of copies therefore depends on the condition; also called purified PFK; PFK1; source: purified from rabbit skeletal muscle
The stoichiometry N is a count of units in the complex or per binding partner. As to B1, the “stoichiometry N” value in data set [2] came out at 2.
